Results: PubChem BioAssay (NCI)
Values joined by “and” are separate entries in the source; they are usually repeats but may differ in a detail not shown here. Equal values may be shown once.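 Where inhibition never reached the appropriate level, the endpoint shown equals the highest concentration tested. Otherwise, values were interpolated linearly from a five-concentration, 48-hour dose response in 96-well plates. Here, GI50 denotes the concentration required for 50% inhibition of growth. TGI: concentration producing complete growth inhibition.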

How the values were obtained:
Test in all cases: NCI-60 cell line screen, 48 h
[1] = test system: BT-549 breast
[2] = test system: HCT-15 colon
[3] = test system: HOP-62 NSCLC
[4] = test system: K-562 leukemia
[5] = test system: KM12 colon
[6] = test system: LOX IMVI melanoma
[7] = test system: NCI-H23 lung
[8] = test system: NCI-H522 lung
[9] = test system: SK-MEL-2 melanoma
[10] = test system: SNB-75 CNS

Row | Structure (SMILES) | GI50 [1] | TGI [1] [µM] | GI50 [2] | TGI [2] [µM] | GI50 [3] | TGI [3] [µM] | GI50 [4] | TGI [4] [µM] | GI50 [5] | TGI [5] [µM] | GI50 [6] | TGI [6] [µM] | GI50 [7] | TGI [7] [µM] | GI50 [8] | TGI [8] | GI50 [9] | TGI [9] | GI50 [10] | TGI [10] [µM]
1 | CCN(CC)c1ccc(/C=C/C2=[N+](C)c3ccccc3C2(C)C)c(C)c1 | < 0.0309 µM | 1.24 | 0.321 µM | 10.9 | 0.0983 µM | 1.74 | 0.0377 µM | 12.2 | 0.0491 µM | 1.36 | 0.0535 µM | 1.28 | < 0.0244 µM | 10.5 | 0.0482 µM | 0.269 µM | 0.0792 µM | 0.582 µM | 0.0736 µM | 0.876
2 | Cc1ccc(-n2nc(C(C)(C)C)cc2NC(=O)NCc2cc(F)ccc2Oc2ccc3c(cnn3CCO)c2)cc1 | > 10 µM and 4.68 µM | > 96.1 | > 10 µM and 8.9 µM | > 100 | > 10 µM and 8.95 µM | > 81.5 | 0.00802 µM and 0.0185 µM | > 10 | 0.611 µM and 1.22 µM | > 35.8 | 0.836 µM and 2.37 µM | > 38.1 | 5.6 µM and 6.17 µM | > 85.3 | > 10 µM and 5.32 µM | > 10 µM and 37.8 µM | 2.98 µM and 4.42 µM | > 10 µM and 13 µM | > 10 µM and 14.8 µM | > 100
3 | CCCCCCCCCCCCCCCCCCOCC(COCCOCC[N+]1(CCCCCC(=O)[O-])CCCC1)Oc1ncccn1 (stereo not given) |  | 21.4 |  | 25.5 |  | 5.24 |  | 14.2 |  | 17.7 |  | 13 |  | 18.1 |  | 7.68 µM |  | 20 µM |  | 12.8
4 | CCn1c(-c2nonc2N)nc2ccncc21 | > 25 µM | > 25 | > 25 µM | > 25 | > 25 µM | > 25 | > 25 µM | > 25 | > 25 µM | > 25 | > 25 µM | > 25 | > 25 µM | > 25 | > 25 µM | > 25 µM | > 25 µM | > 25 µM | > 25 µM | > 25
5 | Cc1ccc(NC(=O)/C(Cc2cc(=O)oc3cc(O)ccc23)=N\NC(=O)C[N+](C)(C)C)cc1C |  | > 100 |  | > 100 |  | > 100 |  | > 100 |  | > 100 |  | > 100 |  | > 100 |  | > 100 µM |  | > 100 µM |  | > 100
6 | O=C(/C=C/c1cccc(O)c1)c1cccc(-n2cc(-c3ccc4ccccc4c3)[nH]c2=O)c1 | 1.89 µM | 5.14 | 1.56 µM | 4.8 | 2.26 µM | 4.29 | 1.43 µM | 4.88 | 1.21 µM | 2.45 | 0.858 µM | 2.08 | 1.52 µM | 3.58 | 1.29 µM | 2.9 µM | 2.31 µM | 7.97 µM | 1.88 µM | 5.93
7 | COC(=O)c1ccc2c(c1)C(=O)c1c-2n(CCCN=[N+]=[N-])c(=O)c2cc([N+](=O)[O-])ccc12 | 24.1 µM | 69.6 | > 100 µM | > 100 | 25.8 µM | 67.5 | 48 µM | > 100 | > 100 µM | > 100 | 61.6 µM | > 100 | 60 µM | > 100 | 34.3 µM | > 100 µM | 27 µM | 82.5 µM | 20.5 µM | 40.8
8 | CC(C)[O-].CC(C)[O-].CN(CCN(C)Cc1cc(F)cc(F)c1[O-])Cc1cc(F)cc(F)c1[O-].[Ti+4] | 1.95 µM | 5.92 | 0.526 µM | 15.1 | 0.634 µM | 3.68 | 0.835 µM | 5.49 | 0.907 µM | 2.95 | 0.784 µM | 3.88 | 0.706 µM | 2.72 | 0.777 µM | 2.33 µM | 1.52 µM | 4.95 µM | 0.517 µM | 2.52
9 | OCc1ccc(N2CCOCC2)cc1Cl | > 100 µM | > 100 | > 100 µM | > 100 | > 100 µM | > 100 | > 100 µM | > 100 | > 100 µM | > 100 | > 100 µM | > 100 | > 100 µM | > 100 | > 100 µM | > 100 µM | > 100 µM | > 100 µM | > 100 µM | > 100
